The supplement of paper PMC10307832

Assays:
Experiment in all cases: relative viability (nuclei count vs DMSO), 5 days (fraction); higher = more cells survive
XMD13-2 + Trametinib = compound: C1CC1C(=O)NC2=NNC3=C2C=CC(=C3)C4=CC(=CC=C4)C(=O)NC5CC5 [XMD13-2] + CC(=O)Nc1cccc(-n2c(=O)n(C3CC3)c(=O)c3c(Nc4ccc(I)cc4F)n(C)c(=O)c(C)c32)c1 [Trametinib] (partner 0.02 µM)
Method in brief: (§1)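 Lung cancer cell lines were pin-tool dosed in 1536-well plates on the day after seeding, with either a lone drug or a fixed anchor-drug dose plus five library-drug doses (not always all listed) in √10 steps. Nuclei were counted on 4× images after 5 days. Relative viability is the ratio of treated-well to vehicle-well nuclei counts, with each value a median of duplicate plates.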

[1] = compound: Cc1ccc(C(=O)Nc2cccc(C(F)(F)F)c2)cc1Nc1cncc(C(N)=O)c1 [ALW-II-49-7] + CC(=O)c1c(C)c2cnc(Nc3ccc(N4CCNCC4)cn3)nc2n(C2CCCC2)c1=O [Palbociclib] (partner 0.5 µM)
Method in brief: as §1

ALW-II-49-7 + Linsitinib = compound: Cc1ccc(C(=O)Nc2cccc(C(F)(F)F)c2)cc1Nc1cncc(C(N)=O)c1 [ALW-II-49-7] + C[C@]1(O)C[C@@H](c2nc(-c3ccc4ccc(-c5ccccc5)nc4c3)c3c(N)nccn32)C1 [Linsitinib] (partner 1 µM)
Method in brief: as §1

Dasatinib + Trametinib = compound: Cc1nc(Nc2ncc(C(=O)Nc3c(C)cccc3Cl)s2)cc(N2CCN(CCO)CC2)n1 [Dasatinib] + CC(=O)Nc1cccc(-n2c(=O)n(C3CC3)c(=O)c3c(Nc4ccc(I)cc4F)n(C)c(=O)c(C)c32)c1 [Trametinib] (partner 0.02 µM)
Method in brief: as §1

Cell Line: UMC-11
- relative viability (XMD13-2 + Trametinib; first compound 0.05 µM): 0.908
- relative viability (XMD13-2 + Trametinib; first compound 0.1581 µM): 0.708
- relative viability (XMD13-2 + Trametinib; first compound 0.5 µM): 0.726
- relative viability (XMD13-2 + Trametinib; first compound 1.581 µM): 0.685
- relative viability (XMD13-2 + Trametinib; first compound 5 µM): 0.513
- relative viability ([1]; first compound 0.08 µM): 0.345
- relative viability ([1]; first compound 0.253 µM): 0.348
- relative viability ([1]; first compound 0.8 µM): 0.33
- relative viability ([1]; first compound 2.53 µM): 0.295
- relative viability ([1]; first compound 8 µM): 0.274
- relative viability (ALW-II-49-7 + Linsitinib; first compound 0.08 µM): 0.989
- relative viability (ALW-II-49-7 + Linsitinib; first compound 0.253 µM): 0.902
- relative viability (ALW-II-49-7 + Linsitinib; first compound 2.53 µM): 1.12
- relative viability (ALW-II-49-7 + Linsitinib; first compound 8 µM): 1.04
- relative viability (Dasatinib + Trametinib; first compound 0.005 µM): 0.675
- relative viability (Dasatinib + Trametinib; first compound 0.01581 µM): 0.63
- relative viability (Dasatinib + Trametinib; first compound 0.05 µM): 0.631
- relative viability (Dasatinib + Trametinib; first compound 0.1581 µM): 0.358
- relative viability (Dasatinib + Trametinib; first compound 0.5 µM): 0.317
